# According to patent publication US7560473B2 (Institute of Pharmacology and Toxicology Academy of …, priority 2001, dated 2009):
# Legend:
# [1] = biological target: T1, ATP-sensitive potassium channels in vascular smooth muscles (Rattus norvegicus, UniProt Q63563); test: Association kinetics of [^3H]P1075 binding in aortic rings; design: species or system Wistar rat; conditions: 37° C.; drug M: Compound 1 10^−4, Glibencamide 10^−5, ATP 10^−2, ADP 10^−3, UDP 5 × 10^−5, GTP 10^−3, Ade 10^−3; control 4.36 ± 0.45; means ± SD, n = 4~10
# T1 construct: The aorta was cut into about 3-5 mm arterial rings and the vascular endothelium was scraped off; from tissue; host or cells: endothelium-removed aortic rings of male Wistar rats
# Text: (§1) Biological activity experiment 4. Allosteric regulation of novel compounds on ATP-sensitive potassium channels in vascular smooth muscles.
# (§2) To study the allosteric regulation of compound 1 on ATP-sensitive potassium channels in vascular smooth muscles, the radio-labled-ligand was used in the biological activity experiment 4.
# (§3) 1. The allosteric regulation of compound 1 on the binding sites for the selective KATP blocker glibenclamide in vascular smooth muscles was studied as follows: After decapitated, the male Wistar rat (340±20 g) was immediately incised open the thoracic cavity. The aorta was dissected and immersed in the 4° C. buffer containing 10 mM HEPES to wash off the blood, then carefully extirpated the fat, peripheral connective tissues and thrombus. The aorta was cut into about 3-5 mm arterial rings and the vascular endothelium was scraped off with wet tampon. The arterial rings were blotted, weighted and transferred into the tubes containing proper amount of ice colded physiological saline buffer. In the association kinetics experiment, the arterial circles in the tubes were incubated with, compound 1(10^−4M), pinacidil(10^−4M), ATP(10^−2M), ADP(10^−3M), Ade(10^−3M), ADP(5×10^−5M) and equal volume of buffer respectively for 10 min in 25° C. water bath, and then added [^3H]-glibenclamide(3 nM). At 5,10,15,20,30,60,90 and 120 min after incubation, 9 mL ice colded Tris buffer (50 mM) was added to terminate the reaction. After washing off the free and bound [^3H]-glibenclamide, the aorta was blotted, transferred to a scintillator, added 50 uL 30% H2O2 and reacted for 2 h at 80° C. After cooling, 2.5 mL ethyl glycol and 5 mL 1% B-BPD xylene were added in sequence, kept stationary for 8 h and measured under a scintillometer for cpm value. The resulting data were fit into a regression line with In[BEQ/(BEQ-Bt)]vs.t and the parameters for association kinetics were obtained. In the disassociation kinetics experiments, the aorta treated as described above and [^3H]-glibenclamide were incubated for 60 min at 25° C., and then 30 uM glibenclamide was added. 0,5,15,30,60,90 and 120 min later, the cpm values for the complex of [^3H]-glibenclamide and KATP were measured. The resulting data were fit into a regression line with In(B/BEQ)]vs.t and the parameters for disassociation kinetics were obtained. 2. The allosteric regulation of compound 1 on the binding sites for the selective KATP activator P1075 in vascular smooth muscles was studied with the method as described above, but some conditions should be changed as follows: the incubation temperature was 37° C. instead of 25° C.;P1075 was used instead of glibenclamide; In the association kinetics experiments, the time points for sampling were 5,10,15,20,30,45,60 and 90 min, while in the disassociation kinetics experiments, that were 1,3,5,10,20,30,45 and 60 min. Biological activity experiment 5. The effects of compound 1 on the specific binding of high selective activator [^3H]P1075 with ATP-sensitive potassium channels in vascular smooth muscles.
# [2] = biological target: T1, ATP-sensitive potassium channels in vascular smooth muscles; test: Association and dissociation kinetics of [^3H]glibenclamide binding in aortic rings; design: species or system Wistar rat; conditions: drug M: compound 1 10^−4, pinacidil 10^−4, ATP 10^−2, ADP 10^−3, UDP 5 × 10^−3, Ade 10^−3; for Dissociation kinetics k2 of [^3H]glibenclamide binding / Association kinetics k1 of [^3H]glibenclamide binding / Association kinetics kobs of [^3H]glibenclamide binding / Association kinetics kA of [^3H]glibenclamide binding: 25° C.; for Dissociation kinetics k2 of [^3H]glibenclamide binding: control 0.72 ± 0.11; for Dissociation kinetics Kd of [^3H]glibenclamide binding in presence of the drug: Kd of the radioligand, not of the drug, control 0.55 ± 0.14; for Association kinetics k1 of [^3H]glibenclamide binding / Association kinetics kobs of [^3H]glibenclamide binding / Association kinetics kA of [^3H]glibenclamide binding: [^3H]-glibenclamide 3 nM; for Association kinetics k1 of [^3H]glibenclamide binding: control 1.31 ± 0.14; for Association kinetics kobs of [^3H]glibenclamide binding: control 4.65 ± 0.37, means ± SD, n = 4~10; for Association kinetics kA of [^3H]glibenclamide binding: control 181.90 ± 46.90
# Text: as §1, §2
# as §3, with “In the association kinetics experiment, the arterial circles in the tubes were incubated with, compound 1(10^−4M), pinacidil(10^−4M), ATP(10^−2M), ADP(10^−3M), Ade(10^−3M), ADP(5×10^−5M) and equal volume of buffer respectively for 10 min in 25° C. water bath, and then added [^3H]-glibenclamide(3 nM).” left out
# [3] = tested on: rats anesthetized with pentobarbital sodium; test: Effects on blood pressure, heart rate, cardiac contraction and dilation in rats anesthetized with pentobarbital sodium; format: in vivo, Wistar rats; design: unit not given here; conditions: change after injection through femoral vein, '+' = increase, all others = decrease
# Protocol: Biological activity experiment 1. The effects of 16 compounds represented by formula I on blood pressure, heart rate, cardiac contraction and dilation in rats anesthetized with pentobarbital sodium.
# The methods of biological activity experiment 1 were as follows: Male Wistar rats, weighing 280±30 g were purchased from the experimental animal center of Academy of Military Medical Sciences. Rats were anesthetized with pentobarbital sodium (45 mg/kg) by peritoneal injection. A PE50 polyethylene catheter was inserted into the left ventricle through right carotid artery for cardiac function measurement with a pressure energe exchanger, wherein the signal is put into a SMUP-PC biosignal processing system. Cardiac functional parameters such as HR, LVSP, +dp/dtmax, −dp/dtmax and Vpm were recorded. Another two PE50 polyethylene catheters were inserted into the right femoral artery and vein respectively for blood pressure measurement wherein the artery cathether was linked to a four-channel physiology recorder (RM-6000) through a MPU-0.5A Type pressure energe exchanger, which recorded SBP, DBP and MBP, while the vein catheter was used for compound administration. The methods were described by Liu Wei et al: Liu Wei, Wang Hai, Xiao Wen-Bin. […] Bull Acad Mil Med Sci 1996;20(4):245˜248.
# [4] = tested on: outward potassium currents of rat tail arterial SMCs; test: Whole cell recording of outward potassium currents in rat tail arterial SMCs; format: cell-based, Wistar rats; conditions: X ± SD n = 5
# Text: Biological activity experiments 6. The effects of novel compounds on potassium currents in isolated arterial vascular smooth muscle cells (SMCs).
# The outward currents were, elicited in rat tail arterial SMCs by superfusing extracellular solution under whole cell recording configuration that the depolarizing pulse were applied from −30 mV to +100 mV with the holding potential of −40 mV in 100 ms, 10 mV clamp steps, a frequency of 5 KHz. The compounds were applied in the bath at the concentrations of 100 μmol L^−1. The amplitude of the outward potassium currents was recorded before and after compound application Values were expressed as means±SD. Statistical significance between two groups was evaluated by student's t-test for paired data * P<0.05 **P<0.01 vs control.
# 1. Preparation of single smooth muscle cells from rat tail arteries: Male Wistar rats (200-250 g) were killed by exsanguination. The tail artery was dissected out and transferred into cold physiological salt solution (PSS) of the following composition (in mM): NaCl 118.3, KCl 4.7, KH2PO4 1.2, MgSO4 1.2, NaHCO3 25.0, CaCl2 2.5, EDTA 0.026 and Glucose 5.0 pH7.4. With the use of a dissecting microscope, the connective tissues were removed and the artery was cut open longitudinally. Endothelium was removed carefully with a cotton swab then the artery was cut into segments with 1 mm long and placed in 4° C. the extracellular solution containing (in mM) NaCl 130, KCl 5, MgCl2 1.2, HEPES 10, Glucose 10, pH7.2 for 20 min. After this incubation, the medium was changed to enzyme solution which was composed of collagenase I (1 mg ml^−1), papain (5 mg ml^−) and bovine serum albumin (2 mg ml^−1). The tissues, were incubated in this solution for 40 min, and then rinsed three times triturated using a fire-polished Pasteur pipette until the medium turned cloudily. The cell suspension was stored in the refrigerator at 4° C.
# 3. Whole cell recordings: A bath dish with the smooth muscle cells (SMCs) attached and superfused with the extracellular solution at a flow rate of 2 ml min^−1 was mounted onto the stage of an inverted-phase contrast microscope. The microelectrodes having a resistance of (5-8 MΩ) were made from boroscilicate thin-wall glass capillaries, using an automatic multiple-stage, electronic puller (PP830 Japan) and then heat-polished. After establishing a high resistance seal, the patch membrane was disrupted by negative pressure. A commercial patch clamp amplifier (Axon 200B) was used to generate and apply voltages and sample current signals from the cell.
# [5] = biological target: T1, ATP-sensitive potassium channels in vascular smooth muscles; test: Inhibition of specific binding of [^3H]P1075 in endothelium-removed rat aorta; design: species or system Wistar rat; conditions: [^3H] P1075 5 nmol L^−1, 90 minutes at 37° C., endothelium-removed rat aorta
# [6] = mean, n = 3~5, doses mg/kg: 2, 8, 12: 10, 3-7, 9-11, 40-44: 5
# T1 sequence (Q63563 1-1545 isoform Q63563-2): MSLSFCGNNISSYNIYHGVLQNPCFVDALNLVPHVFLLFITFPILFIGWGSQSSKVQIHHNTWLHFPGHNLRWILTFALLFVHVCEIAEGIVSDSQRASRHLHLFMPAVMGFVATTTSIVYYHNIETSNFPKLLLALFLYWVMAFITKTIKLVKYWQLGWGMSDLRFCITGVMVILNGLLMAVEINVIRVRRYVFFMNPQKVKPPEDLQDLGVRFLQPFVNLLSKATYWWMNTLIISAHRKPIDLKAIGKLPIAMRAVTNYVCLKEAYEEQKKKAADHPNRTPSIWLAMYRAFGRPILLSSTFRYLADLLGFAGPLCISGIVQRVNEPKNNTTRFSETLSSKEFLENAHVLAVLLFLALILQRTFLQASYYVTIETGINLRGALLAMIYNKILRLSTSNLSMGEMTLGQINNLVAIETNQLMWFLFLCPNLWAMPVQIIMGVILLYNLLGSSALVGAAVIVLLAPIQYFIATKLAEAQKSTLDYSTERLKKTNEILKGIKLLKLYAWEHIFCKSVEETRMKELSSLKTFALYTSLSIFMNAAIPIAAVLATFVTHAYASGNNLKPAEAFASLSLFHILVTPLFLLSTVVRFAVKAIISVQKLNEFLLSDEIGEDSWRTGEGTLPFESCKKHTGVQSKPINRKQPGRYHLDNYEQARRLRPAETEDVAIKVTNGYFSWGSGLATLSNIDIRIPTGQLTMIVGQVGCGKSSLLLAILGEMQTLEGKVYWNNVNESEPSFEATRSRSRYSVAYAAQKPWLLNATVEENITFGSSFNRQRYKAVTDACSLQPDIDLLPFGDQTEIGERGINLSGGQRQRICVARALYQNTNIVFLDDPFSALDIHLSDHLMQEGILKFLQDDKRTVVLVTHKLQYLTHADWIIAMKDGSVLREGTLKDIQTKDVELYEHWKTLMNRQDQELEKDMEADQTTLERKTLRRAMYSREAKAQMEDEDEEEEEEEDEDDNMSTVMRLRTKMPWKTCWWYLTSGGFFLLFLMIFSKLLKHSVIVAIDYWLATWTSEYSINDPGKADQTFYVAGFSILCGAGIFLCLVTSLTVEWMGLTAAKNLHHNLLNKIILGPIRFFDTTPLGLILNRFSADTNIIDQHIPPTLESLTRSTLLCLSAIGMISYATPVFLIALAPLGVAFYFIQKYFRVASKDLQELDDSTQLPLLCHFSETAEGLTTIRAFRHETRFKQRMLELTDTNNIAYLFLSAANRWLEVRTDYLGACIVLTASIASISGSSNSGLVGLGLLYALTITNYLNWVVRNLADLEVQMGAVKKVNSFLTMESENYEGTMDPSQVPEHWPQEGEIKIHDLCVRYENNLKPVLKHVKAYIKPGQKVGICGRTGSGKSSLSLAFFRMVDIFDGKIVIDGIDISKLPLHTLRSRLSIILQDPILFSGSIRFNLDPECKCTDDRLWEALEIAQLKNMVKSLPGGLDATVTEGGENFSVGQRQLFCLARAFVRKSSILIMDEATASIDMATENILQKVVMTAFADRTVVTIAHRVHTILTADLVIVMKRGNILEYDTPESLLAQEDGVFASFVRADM
# T1 sequence (Q63664 whole entry partner): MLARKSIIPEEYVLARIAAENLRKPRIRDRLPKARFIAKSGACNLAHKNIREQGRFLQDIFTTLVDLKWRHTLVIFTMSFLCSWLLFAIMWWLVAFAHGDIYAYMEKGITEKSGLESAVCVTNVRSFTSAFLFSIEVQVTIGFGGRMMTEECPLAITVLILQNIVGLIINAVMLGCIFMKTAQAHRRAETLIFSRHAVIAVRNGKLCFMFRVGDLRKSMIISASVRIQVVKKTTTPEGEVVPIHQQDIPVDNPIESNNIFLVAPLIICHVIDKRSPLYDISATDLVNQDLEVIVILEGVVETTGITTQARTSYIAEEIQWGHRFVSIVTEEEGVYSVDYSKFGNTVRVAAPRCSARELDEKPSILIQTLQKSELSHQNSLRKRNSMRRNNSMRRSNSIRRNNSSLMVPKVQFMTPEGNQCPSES
Compound,Association kinetics kobs of [^3H]P1075 binding [1],Dissociation kinetics k2 of [^3H]glibenclamide binding [2],Dissociation kinetics Kd of [^3H]glibenclamide binding in presence of the drug [2] [µM],Association kinetics k1 of [^3H]glibenclamide binding [2],Association kinetics kobs of [^3H]glibenclamide binding [2],Association kinetics kA of [^3H]glibenclamide binding [2],further results
Nc1ncnc2c1ncn2[C@@H]1O[C@H](COP(=O)(O)OP(=O)(O)O)[C@@H](O)[C@H]1O [ADP],2.63 ± 0.48 ×10^−2 nM^−1 · min^−1,0.94 ± 0.10 ×10^2 nM^−1 · min^−1,0.00209 ± 0.00112,0.45 ± 0.24 ×10^−2nM^−1 · min^−1,2.28 ± 0.70 ×10^−2nM^−1 · min^−1,47.80 ± 25.70 ×10^−2nM^−1 · min^−1,–
"Nc1ncnc2c1ncn2[C@@H]1O[C@H](COP(=O)(O)OP(=O)(O)OP(=O)(O)O)[C@@H](O)[C@H]1O [ATP, adenosine triphosphate]",2.85 ± 0.08 ×10^−2 nM^−1 · min^−1,0.42 ± 0.14 ×10^2 nM^−1 · min^−1,0.00017 ± 6e-05,2.42 ± 0.34 ×10^−2nM^−1 · min^−1,7.69 ± 1.01 ×10^−2nM^−1 · min^−1,590.2 ± 208.20 ×10^−2nM^−1 · min^−1,–
O=c1ccn([C@@H]2O[C@H](COP(=O)(O)OP(=O)(O)O)[C@@H](O)[C@H]2O)c(=O)[nH]1 [UDP],5.53 ± 0.51 ×10^−2 nM^−1 · min^−1,0.80 ± 0.22 ×10^2 nM^−1 · min^−1,0.0007 ± 0.00024,1.15 ± 0.23 ×10^−2nM^−1 · min^−1,4.26 ± 0.65 ×10^−2nM^−1 · min^−1,143.50 ± 49.00 ×10^−2nM^−1 · min^−1,–
"CCCNC(C)(C)C(C)C [compound 5, N-propyl-2,3-dimethyl-2-butylamine]",–,–,–,–,–,–,"MBP: mean blood pressure ([3]; n = 3~5, doses mg/kg: 2, 8, 12: 10, 3-7, 9-11, 40-44: 5): 28; DBP: diastolic blood pressure [3, 6]: 25; HR: heart rate [3, 6]: 78; LVSP: left ventricular systolic pressure [3, 6]: 162; SBP: systolic blood pressure [3, 6]: 34; Vpm: the physiological velocity of contractile element shorting [3, 6]: 0.58; −dp/dtmax: the maximal rate of the decrease of left ventricular pressure [3, 6]: 187; melting point: 183 to 185 °C; Currents, + Compound ([4]; outward potassium current amplitude after compound 100 μmol L^−1 in the bath): 0.67 ± 0.30 nA; Currents, Control (before compound application) ([4]; outward potassium current amplitude before compound application, same cells): 0.65 ± 0.30 nA"
"COc1ccc(Cl)cc1C(=O)NCCc1ccc(S(=O)(=O)NC(=O)NC2CCCCC2)cc1 [glibenclamide, reference compound]",3.12 ± 0.17 ×10^−2 nM^−1 · min^−1,–,–,–,–,–,IC50 [5]: 58.9 ± 4.6 µM; Ki ([5]; read-out: pKi for inhibition of specific binding of [^3H]P1075 (converted)): 58.9 µM
